Experimental data taken from EP1208096B1, “SUBSTITUTED PYRIDAZINES AND FUSED PYRIDAZINES WITH ANGIOGENESIS INHIBITING ACTIVITY” (Bayer Corporation, priority 1999, dated 2001).
pIC50: −log10 of the molar value.

What was measured:
[1] = target: T1, cytosolic kinase domain of KDR kinase (Homo sapiens, UniProt P35968); assay: KDR Assay (ELISA, phosphorylation of poly(Glu4;Tyr1)); assay type: biochemical; details: 3.3 µM ATP, 60 minutes at room temperature, 30 ng KDR kinase domain
T1 construct: The cytosolic kinase domain of KDR kinase was expressed as a 6His fusion protein in Sf9 insect cells; 6His; made in house; host or cells: Sf9 insect cells
T1 sequence (P35968 834-1162 limits assumed): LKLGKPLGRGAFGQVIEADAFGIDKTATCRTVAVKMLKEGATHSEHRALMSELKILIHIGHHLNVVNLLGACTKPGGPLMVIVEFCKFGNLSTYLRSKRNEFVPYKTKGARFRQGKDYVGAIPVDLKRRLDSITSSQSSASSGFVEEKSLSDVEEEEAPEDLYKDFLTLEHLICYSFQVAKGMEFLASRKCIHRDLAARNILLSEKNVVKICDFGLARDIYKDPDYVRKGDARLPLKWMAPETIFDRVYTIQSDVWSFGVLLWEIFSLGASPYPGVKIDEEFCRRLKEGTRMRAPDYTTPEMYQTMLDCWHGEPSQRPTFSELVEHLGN
Method: The cytosolic kinase domain of KDR kinase was expressed as a 6His fusion protein in Sf9 insect cells. The KDR kinase domain fusion protein was purified over a Ni^++ chelating column. Ninety-six well ELISA plates were coated with 5 µg poly(Glu4;Tyr1) (Sigma Chemical Co., St Louis, MO) in 100 µl HEPES buffer (20 mM HEPES, pH 7.5, 150 mM NaCl, 0.02% Thimerosal) at 4° overnight. Before use, the plate was washed with HEPES, NaCl buffer and the plates were blocked with 1% BSA, 0.1% Tween 20 in HEPES, NaCl buffer.
Test compounds were serially diluted in 100% DMSO from 4 mM to 0.12 µM in half-log dilutions. These dilutions were further diluted twenty fold in H2O to obtain compound solutions in 5% DMSO. Following loading of the assay plate with 85 µl of assay buffer (20 mM HEPES, pH 7.5, 100 mM KCl, 10 mM MgCl2, 3 mM MnCl2, 0.05% glycerol, 0.005% Triton X-100, 1 mM -mercaptoethanol, with or without 3.3 µM ATP), 5 µl of the diluted compounds were added to a final assay volume of 100 µl. Final concentrations were between 10 µM, and 0.3 nM in 0.25% DMSO. The assay was initiated by the addition of 10µl (30 ng) of KDR kinase domain.
The assay was incubated with test compound or vehicle alone with gentle agitation at room temperature for 60 minutes. The wells were washed and phosphotyrosines (PY) were probed with an anti-phosphotyrosine (PY), mAb clone 4G10 (Upstate Biotechnology, Lake Placid, NY). PY/anti-PY complexes were detected with an anti-mouse IgG/HRP conjugate (Amersham International plc, Buckinghamshire, England). Phosphotyrosine was quantitated by incubating with 100 µl 3, 3', 5, 5' tetramethylbenzidine solution (Kirkegaard and Perry, TMB Microwell 1 Component peroxidase substrate). Color development was arrested by the addition of 100 µl 1% HCl-based stop solution (Kirkegaard and Perry, TMB I Component Stop Solution).
Optical densities were determined spectrophotometrically at 450 nm in a 96-well plate reader, SpectraMax 250 (Molecular Devices). Background (no ATP in assay) OD values were subtracted from all ODs and the percent inhibition was calculated according to the equation: % Inhibition =((OD(vehicle control) - OD(with compound)) X 100)/(OD(vehicle control) - OD(no ATP added)) [formula]
The IC50 values were determined with a least squares analysis program using compound concentration versus percent inhibition. Compounds that have IC50 < 100 nM in this assay include those of Examples 1, 2, 4, 5, 6, 7, 10, 11, 12, 13, 14, 15, 16 and 23. Compounds that have IC50 values between 100 nM and 1,000 nM include those of examples 8, 9 and 22. Those that have measured IC50 values > 1,000 nM include those of examples 3, 17, 18 and 21.

[2] = target: T2, NIH3T3 cells expressing the full length KDR receptor (Homo sapiens, UniProt P35968); assay: Cell mechanistic assay - Inhibition of 3T3 KDR phosphorylation; assay type: cell-based; details: VEGF (30 ng / ml) for 10 minutes after 30 minutes with compound; KDR phosphotyrosine ELISA
T2 construct: NIH3T3 cells expressing the full length KDR receptor; expressed in transfected cells; host or cells: NIH3T3 cells (G418 selection)
T2 sequence (P35968 20-1356): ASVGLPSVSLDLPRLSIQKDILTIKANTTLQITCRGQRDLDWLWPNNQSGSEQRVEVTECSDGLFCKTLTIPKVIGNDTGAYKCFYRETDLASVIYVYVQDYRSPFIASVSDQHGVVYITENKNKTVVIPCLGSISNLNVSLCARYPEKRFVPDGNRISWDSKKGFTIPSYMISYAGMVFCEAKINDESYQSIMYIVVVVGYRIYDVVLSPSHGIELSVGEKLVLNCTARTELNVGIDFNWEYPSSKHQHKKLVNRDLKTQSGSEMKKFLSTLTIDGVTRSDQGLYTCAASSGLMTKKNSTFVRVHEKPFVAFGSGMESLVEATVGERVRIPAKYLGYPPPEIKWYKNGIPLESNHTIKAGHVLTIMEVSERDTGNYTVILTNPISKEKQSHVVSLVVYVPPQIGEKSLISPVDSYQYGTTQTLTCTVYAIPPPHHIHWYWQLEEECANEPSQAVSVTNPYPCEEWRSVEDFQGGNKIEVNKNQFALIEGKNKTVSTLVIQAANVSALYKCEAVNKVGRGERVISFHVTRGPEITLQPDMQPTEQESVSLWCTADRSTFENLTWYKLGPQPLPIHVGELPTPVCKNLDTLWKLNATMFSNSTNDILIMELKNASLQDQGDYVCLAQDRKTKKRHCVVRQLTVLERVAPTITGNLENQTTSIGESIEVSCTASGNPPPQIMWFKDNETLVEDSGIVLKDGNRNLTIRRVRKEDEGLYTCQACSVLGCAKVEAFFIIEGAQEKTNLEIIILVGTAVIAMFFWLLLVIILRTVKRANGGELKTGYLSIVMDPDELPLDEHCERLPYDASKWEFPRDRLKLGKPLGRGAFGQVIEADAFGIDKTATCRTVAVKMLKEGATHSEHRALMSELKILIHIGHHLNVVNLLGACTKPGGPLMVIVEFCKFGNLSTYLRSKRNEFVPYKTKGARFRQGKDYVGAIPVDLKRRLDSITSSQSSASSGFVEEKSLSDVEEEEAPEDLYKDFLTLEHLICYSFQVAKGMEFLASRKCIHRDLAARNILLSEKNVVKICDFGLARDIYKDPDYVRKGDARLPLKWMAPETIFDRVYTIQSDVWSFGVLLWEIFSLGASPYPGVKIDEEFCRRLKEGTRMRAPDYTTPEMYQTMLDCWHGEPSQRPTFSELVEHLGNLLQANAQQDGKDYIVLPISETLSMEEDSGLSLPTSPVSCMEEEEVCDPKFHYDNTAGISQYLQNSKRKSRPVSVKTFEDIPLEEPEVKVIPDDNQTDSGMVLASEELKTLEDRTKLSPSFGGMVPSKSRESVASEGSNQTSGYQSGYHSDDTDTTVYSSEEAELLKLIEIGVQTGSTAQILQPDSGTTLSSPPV
Method: NIH3T3 cells expressing the full length KDR receptor were grown in DMEM (Life Technologies, Inc., Grand Island, NY) supplemented with 10% newborn calf serum, low glucose, 25 mM /L sodium pyruvate, pyridoxine hydrochloride and 0.2 mg/ ml of G418 (Life Technologies Inc., Grand Island, NY). The cells were maintained in collagen I-coated T75 flasks (Becton Dickinson Labware, Bedford, MA) in a humidified 5% CO2 atmosphere at 37°C.
Fifteen thousand cells were plated into each well of a collagen I-coated 96-well plate in the DMEM growth medium. Six hours later, the cells were washed and the medium was replaced with DMEM without serum. After overnight culture to quiesce the cells, the medium was replaced by Dulbecco's phosphate-buffered saline (Life Technologies Inc., Grand Island, NY) with 0.1% bovine albumin (Sigma Chemical Co., St Louis, MO). After adding various concentrations (0-300 nM) of test compounds to the cells in 1% final concentration of DMSO, the cells were incubated at room temperature for 30 minutes. The cells were then treated with VEGF (30 ng / ml) for 10 minutes at room temperature. Following VEGF stimulation, the buffer was removed and the cells were lysed by addition of 150 µl of extraction buffer (50 mM Tris, pH 7.8, supplemented with 10% glycerol, 50 mM BGP, 2 mM EDTA, 10 mM NaF, 0.5 mM NaVO4, and 0.3% TX-100) at 4°C for 30 minutes.
To assess receptor phosphorylation, 100 microliters of each cell lysate was added to the wells of an ELISA plate precoated with 300 ng of antibody C20 (Santa Cruz Biotechnology, Inc., Santa Cruz , CA). Following a 60-minute incubation, the plate was washed and bound KDR was probed for phosphotyrosine using an anti-phosphotyrosine mAb clone 4G10 (Upstate Biotechnology, Lake Placid, NY). The plate was washed and wells were incubated with anti-mouse IgG/HRP conjugate (Amersham International plc, Buckinghamshire, England) for 60 minutes. Wells were washed and phosphotyrosine was quantitated by addtion of 100 µl per well of 3,3',5,5' tetramethylbenzidine (Kirkegaard and Perry, TMB Microwell 1 Component peroxidase substrate) solution. Color development was arrested by the addition of 100 µl 1% HCl based stop solution (Kirkegaard and Perry, TMB 1 Component Stop Solution).
Optical densities (OD) were determined spectrophotometrically at 450 nm in a 96-well plate reader (SpectraMax 250, Molecular Devices). Background (no VEGF added) OD values were subtracted from all ODs and percent inhibition was calculated according to the equation: % Inhibition =((OD(VEGF control) - OD(with test compound)) X 100)/(OD(VEGF control) - OD(no VEGF added)) [formula]
IC50s were determined with a least squares analysis program using compound concentration versus percent inhibition. Compounds that have IC50 < 20 nM in this assay include those of Examples 2, 6, 7, 11, 15 and 16. Compounds that have IC50 values between 20 nM and 50 nM include those of examples 1, 4, 5, 8, 10, 12, 13 and 14. Those that have measured IC50 values > 50 nM include those of examples 9 and 21.

## CNC(=O)c1cc(Cc2nnc(Nc3ccc(Cl)cc3)c3ccccc23)ccn1 [Example 1, 4-[4-(4-Chlorophenylamino)phthalazin-1-ylmethyl]pyridin-2-yl carboxylic acid methylamide]
[1]
  pIC50: > 7.00
[2]
  pIC50: 7.30 to 7.70
